The results in this text go back to patent US20240041820A1, “SENOTHERAPEUTIC COMPOUND” (BIONEXA S.R.L., priority 2020, published 2024).

Holding throughout (type): cell-based
Test [1] concerns human pancreatic epithelial cells PANC-1. Nature of the test: Senolytic activity on doxorubicin-induced senescent PANC-1 cells (crystal violet survival). Conditions: senescent PANC-1, 1-60 μM, 72 h (FIG. 3a). As for the experimental part: (§1) The successful conversion to the senescent cell phenotype was confirmed by morphological changes (flattening and cell enlargement) and positivity for lysosomal beta-galactosidase (β-GAL). The SA-β-GAL (senescence-associated β-GAL) senescence assay was performed with the SA-β-Gal Staining Kit (Cell Signaling Technology, Inc., Danvers, MA). Briefly, after fixation with […] for 15 min at room temperature, senescent cells were quantified by calculating the percentage of SA-β-GAL positive (blue stained) cells present in culture by examining 200 cells per well with the phase contrast microscope EVOS XL Cell Imaging System (Thermo Fisher; objective, 40X).
(§2) Senolytic activity on senescent human cells (in 96-well plates) was evaluated after specific treatments (for 72 h), including vehicle (DMSO; negative control), quercetin (Que; positive control) or different compounds according to the ‘invention bearing identification codes as fully illustrated also in patent application WO 2019/008537 A1, filed on May 7, 2017 in the name of Vera Salus Ricerca SrI (FIGS. 1, 2 and 3) from page 91 to page 106 and in the relative Figures. At the end of the treatments, cell survival was quantified by crystal violet staining. […] After further washing with water (3X), 100 μl of acetic acid (10%) were added per well and the absorbance (λ=590 nm) measured with a Synergy spectrophotometer (AHSI). […]

In test [2] the test system is human hepatic epithelial cells HepG2. Nature of the test: Senolytic activity on doxorubicin-induced senescent HepG2 cells (crystal violet survival). The settings on record: senescent HepG2, 1-60 μM, 72 h (FIG. 3b). On the procedure:
as §1, §2

The subject of test [3] is human renal epithelial cells 786-0. Nature of the test: Senolytic activity on doxorubicin-induced senescent 786-0 cells (crystal violet survival). Conditions: senescent 786-0, 1-60 μM, 72 h (FIG. 2b). On the procedure:
as §1, §2

The test system of test [4] is human intestinal epithelium cells HCT116. Nature of the test: Senolytic activity on doxorubicin-induced senescent HCT116 cells (crystal violet survival). The settings on record: senescent HCT116, 1-60 μM, 72 h (FIG. 2a). On the procedure: as §1, §2
The subject of test [5] is human lung epithelium cells A549. Nature of the test: Senolytic activity on doxorubicin-induced senescent A549 cells (crystal violet survival). Conditions: senescent A549, 1-60 μM, 72 h (FIG. 3c). On the procedure: as §1, §2
The test system of test [6] is human WS1 fibroblast cells. Nature of the test: Senolytic activity on doxorubicin-induced senescent WS1 fibroblasts (crystal violet survival). As for the experimental part: as §1
Senolytic activity on senescent human cells (in 96-well plates) was evaluated after specific treatments (for 72 h), including vehicle (DMSO; negative control), quercetin (Que; positive control) or different compounds according to the ‘invention bearing identification codes as fully illustrated also in patent application WO 2019/008537 A1, filed on May 7, 2017 in the name of Vera Salus Ricerca SrI (FIGS. 1, 2 and 3) from page 91 to page 106 and in the relative Figures. At the end of the treatments, cell survival was quantified by crystal violet staining. Briefly, cells were fixed with paraformaldehyde (4%) in PBS for 20 min, washed (2X in distilled water) and stained with 1% crystal violet (for 20 min). After further washing with water (3X), 100 μl of acetic acid (10%) were added per well and the absorbance (λ=590 nm) measured with a Synergy spectrophotometer (AHSI). Each experiment was carried out in quadruplicate and repeated at least three times, on three different days. Senolytic activity was expressed as % of senescent cells eliminated with respect to the control condition (DMSO). Results were presented as means±SEM (standard error of mean) and related analyzes were performed with GraphPadPrism® 6.0 software (CA, USA).
In a first step, the senolytic activities of the compounds according to the invention were investigated in human WS1 fibroblast cells (normal fibroblasts of cutaneous origin, ATCC® CRL-1502™). WS1 cell senescence was induced with 100 nM doxorubicin (24 h) and 12 days of recovery, while the senolytic activity was quantified after treatments with vehicle (DMSO), quercetin (Que, 20 μM), quercetin (20 μM) plus dasatinib (DAS, 200 nM; other positive control) or 18 distinct compounds according to the invention used at a concentration of 20 μM, alone (FIG. 1a) or in the presence of 200 nM dasatinib (FIG. 1b).

Entries after “also recorded” stand apart in the source; their conditions may differ.

Regarding `COc1ccc(-c2ccc(C(=O)NCCOCCOc3c(-c4ccc(O)c(O)c4)oc4cc(O)cc(O)c4c3=O)cc2)cc1` [29g], the “senolytic activity compared with quercetin” value in test [1], in test [2], in test [3], in test [4] and in test [5] was “significantly higher than quercetin” throughout. Besides, the “senolytic effect relative to that of quercetin” value in test [6] (senescent WS1, 20 μM alone vs quercetin 20 μM, 72 h (FIG. 1a)) is given as about 3 times. Besides, the “senolytic effect in words, compared with the other compounds / treatments” value in test [6] (senescent WS1, 20 μM alone, 72 h (FIG. 1a)) is listed as “maximum senolytic effects; also recorded: higher senolytic effect than all the other compounds”. For the same compound, the “senolytic effect of compound alone compared with the combination quercetin plus dasatinib” value in test [6] (senescent WS1, compound 20 μM alone vs quercetin 20 μM + dasatinib 200 nM, 72 h) is on record as “greater than the combination of quercetin plus dasatinib”. Moreover, the “senolytic effect (% of senescent cells eliminated with respect to DMSO control)” value in test [6] (senescent WS1, compound 20 μM alone, 72 h (FIG. 1a)) is on record as about 60%. The “senolytic action compared with quercetin plus dasatinib” value in test [6] (senescent WS1, compound 20 μM in the presence of 200 nM dasatinib vs quercetin 20 μM + dasatinib 200 nM, 72 h (FIG. 1b)) is “more effective”.
